Measured values taken from patent US20120263794A1, “TREATMENT OF EYE DISEASES USING ENCAPSULATED CELLS ENCODING AND SECRETING A NEUROPROTECTIVE FACTOR AND/OR AN ANTI-ANGIOGENIC FACTOR” (BIOCOMPATIBLE UK LTD., priority 2009, published 2012).
Ends that are not written are not given here.

B1: GLP-1 (7-37)-IP2-RR-GLP2 (protein)
chain: HAEGTFTSDVSSYLEGQAAKEFIAWLVKGRGRRDFPEEVAIAEELGRRHADGSFSDEMSTILDNLATRDFINWLIQTKITDKK
modifications: Description of sequence SEQ ID No 7 (ID7rec, CM2) corresponds to GLP-1(7-37)-IP2-RR-GLP2, 83 aa, 9,4 kD
notes: 83 aa, recombinant

Key:
DPP-IV = target: T1, DPP-IV (Homo sapiens, UniProt P27487); assay: In vitro human plasma stability of GLP-1CM peptides; format: in vitro ADME; details: 20 ng/ml, 37° C., 5% CO2, 3 hours, in contrast to native GLP-1(7-37)
T1 construct: incubated at concentrations of 20 ng/ml with human plasma; from tissue; host or cells: human plasma
Protocol: Synthetic GLP-1 peptides (SEQ ID NO:1syn, SEQ ID SEQ ID NO:7rec, SEQ ID NO:8syn) were incubated at concentrations of 20 ng/ml with human plasma at 37° C. and 5% CO2 for 3 hours. Dipeptidylpeptidase activity of the plasma was inhibited by a DPP-IV inhibitor (#DPP4, Biotrend).

Rin-5F cells = assay: Anti-apoptotic efficacy, cycloheximid-induced apoptosis, AlamarBlue; format: cell-based, rat; details: 24 hours
Protocol: Apoptosis is induced in RIN-5F cells by addition of the protein biosynthesis inhibitor cycloheximid (CHX) in a final of 10 μg/ml and 100 μg/ml respectively.
40.000 Rin-5F cells were seeded per 96 well and cultivated for 2 days in RPMI supplemented with 1% L-Glutamin and 10% fetal calf serum. […] After 24 hours cell viability is quantified using AlamarBlue.

T1 sequence (P27487 whole entry): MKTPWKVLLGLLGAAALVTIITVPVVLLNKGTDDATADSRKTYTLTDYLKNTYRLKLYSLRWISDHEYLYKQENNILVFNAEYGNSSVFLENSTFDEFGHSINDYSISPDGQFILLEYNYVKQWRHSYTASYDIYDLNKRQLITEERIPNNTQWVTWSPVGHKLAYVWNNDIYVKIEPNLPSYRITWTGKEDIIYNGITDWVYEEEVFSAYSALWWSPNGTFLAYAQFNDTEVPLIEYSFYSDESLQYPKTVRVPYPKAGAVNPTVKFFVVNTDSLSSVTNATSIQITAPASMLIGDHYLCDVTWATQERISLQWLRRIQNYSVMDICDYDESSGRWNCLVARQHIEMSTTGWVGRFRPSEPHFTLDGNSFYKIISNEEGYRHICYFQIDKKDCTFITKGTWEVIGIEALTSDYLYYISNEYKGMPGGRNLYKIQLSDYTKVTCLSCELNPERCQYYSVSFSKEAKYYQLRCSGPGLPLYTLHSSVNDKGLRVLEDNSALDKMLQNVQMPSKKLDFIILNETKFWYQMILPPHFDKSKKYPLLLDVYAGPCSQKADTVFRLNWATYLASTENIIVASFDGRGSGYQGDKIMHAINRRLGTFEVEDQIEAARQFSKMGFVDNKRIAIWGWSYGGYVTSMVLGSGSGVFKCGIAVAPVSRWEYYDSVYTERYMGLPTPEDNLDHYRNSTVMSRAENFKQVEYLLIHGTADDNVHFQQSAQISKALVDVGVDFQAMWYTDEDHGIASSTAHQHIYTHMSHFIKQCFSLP

Row | Molecule | stability in human plasma (active GLP, ELISA) (DPP-IV) | cell viability (Rin-5F cells; different concentrations, CHX 10 μg/ml and 100 μg/ml) | anti-apoptotic effect (Rin-5F cells; in the presence of 1 nM, cycloheximid, serumfree, p<0.01)
1 | GLP-1 (7-37)-IP2-RR-GLP1(7-37) [SEQ ID NO:6] | significantly stabilized |  | 
2 | HAEGTFTSDVSSYLEGQAAKEFIAWLVKGRGRRDFPEEVAIAEELG [SEQ ID NO:8, GLP-1 (7-37)-IP2] | significantly stabilized |  | 
3 | CM1: C-terminally elongated dimeric GLP-1 fusion peptide GLP-1 (7-37)-IP2-GLP-1 (7-37) produced by construct #217 |  | significant (p<0.01) increase of cell viability | significant anti-apoptotic effect
4 | B1 | significantly stabilized |  | 
